{"source": "patent US9128100B2", "about": "“Non-invasive diagnostic method for the evaluation of intestinal lactase deficiency (hypolactasia)” (Venter Pharma, S.L., priority 2012, dated 2015)", "key": {"intestinal lactase [1]": {"target": "T1, intestinal lactase (Homo sapiens, UniProt P09848)", "T1 construct": "after its oral administration it is hydrolysed by the intestinal mucosa enzyme; from tissue; host or cells: small-intestinal mucosa (enterocyte brush border) of living human volunteers and patients, in vivo", "T1 sequence (P09848 869-1927)": "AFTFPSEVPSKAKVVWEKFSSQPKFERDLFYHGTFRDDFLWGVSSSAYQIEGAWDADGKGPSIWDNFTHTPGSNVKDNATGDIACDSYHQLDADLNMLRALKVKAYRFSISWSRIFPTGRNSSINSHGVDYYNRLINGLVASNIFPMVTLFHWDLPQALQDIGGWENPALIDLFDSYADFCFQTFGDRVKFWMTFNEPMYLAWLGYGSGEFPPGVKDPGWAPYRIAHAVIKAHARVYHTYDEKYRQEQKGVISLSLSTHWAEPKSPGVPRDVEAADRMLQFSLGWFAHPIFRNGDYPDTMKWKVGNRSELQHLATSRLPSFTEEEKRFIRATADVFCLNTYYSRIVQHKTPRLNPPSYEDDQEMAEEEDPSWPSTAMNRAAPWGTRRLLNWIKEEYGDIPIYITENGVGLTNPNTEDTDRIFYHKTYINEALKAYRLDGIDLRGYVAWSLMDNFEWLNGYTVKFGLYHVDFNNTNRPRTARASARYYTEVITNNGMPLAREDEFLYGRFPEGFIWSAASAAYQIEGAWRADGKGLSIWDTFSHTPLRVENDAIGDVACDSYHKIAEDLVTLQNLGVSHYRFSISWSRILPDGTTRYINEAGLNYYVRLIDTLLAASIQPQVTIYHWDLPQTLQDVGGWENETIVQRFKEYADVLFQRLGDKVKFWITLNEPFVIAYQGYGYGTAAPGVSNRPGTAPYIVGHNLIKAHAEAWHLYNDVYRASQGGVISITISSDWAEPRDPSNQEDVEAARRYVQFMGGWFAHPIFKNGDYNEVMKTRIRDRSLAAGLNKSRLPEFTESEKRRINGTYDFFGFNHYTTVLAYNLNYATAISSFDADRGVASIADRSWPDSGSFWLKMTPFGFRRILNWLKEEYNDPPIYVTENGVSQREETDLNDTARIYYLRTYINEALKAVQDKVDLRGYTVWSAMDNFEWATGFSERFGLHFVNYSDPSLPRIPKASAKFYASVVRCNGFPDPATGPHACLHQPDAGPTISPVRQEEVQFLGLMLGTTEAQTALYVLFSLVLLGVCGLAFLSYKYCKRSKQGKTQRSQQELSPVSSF", "assay": "Plasma xylose concentration after single oral doses of 4-GX in healthy volunteers", "format": "in vivo", "details": "for AUC 0-t: area under the curve of plasma xylose concentration against time: mean", "protocol": "Two groups of subjects were selected. […] Firstly, the lowest suitable oral dose of 4-GX administered to healthy volunteers was determined that enabled reliable detection (in terms of accuracy and reproducibility) of xylose levels in urine and blood via the analytical method to be used. In addition, the tolerance of these subjects to the various doses of 4-GX used in the test and the pharmacokinetics for each dose administered were analysed, both in urine and blood. The doses of 4-GX used were: 0.125 g, 0.250 g, 0.5 g, 1 g, 3 g and 6 g in addition to placebo in 12 healthy volunteers with washout period between doses of between three and seven days. It should be appreciated that the 4-GX doses can include small quantities of water which remain subsequent to the drying process of the 4-GX product. For example, the 4-GX product can contain about 8 wt % to about 12 wt %, most likely about 10 wt % water, based on the total weight of the product. Accordingly, the aforementioned 4-GX doses administered would actually include 0.1125 g, 0.225 g, 0.45 g, 0.9 g, 2.7 g and 5.4 g of actual 4-GX product, respectively, if they contain 10 wt % water. The study was performed with seven treatment periods and a washout time between the various periods of at least 3 days. In each study period, an ascending dose of 4-GX was administered and the serum and urine concentrations of xylose were measured at various times up to 8 hours following the administration of the drug.\nThe main measured variable was the quantity of xylose in urine collected following oral administration of 4-GX at the following times: basal, 0-1 h, 1-2 h, 2-3 h, 3-4 h, 4-5 h, 5-6 h, 6-7 h and 7-8 h. Secondary variables quantified were the plasma concentration of xylose measured in blood samples extracted following the oral administration of 4-GX at the following times: basal, 30 min, 60 min, 90 min, 120 min, 150 min, 3 h, 4 h, 5 h, 6 h, 7 h and 8 h. A pharmacokinetic analysis was also performed using the values of AUC (area under the curve of variation in the plasma xylose concentration against time), Cmax (maximum xylose plasma concentration), Tmax (time at which maximum xylose plasma concentration was reached) and T1/2 (elimination half-life), calculated from the plasma concentrations of xylose derived from the hydrolysis of 4-GX by intestinal lactase.\nThe next objective was the determination and pharmacokinetic analysis of the xylose concentration in plasma in order to identify the smallest dose of 4-GX that could be distinguished from placebo (without 4-GX administration) to be used in the 4-GX test for the diagnosis of intestinal lactase deficiency (Table 3)."}, "intestinal lactase [2]": {"target": "T1, intestinal lactase", "assay": "4-GX test in 90-minutes blood, patients with symptoms suggestive of lactose intolerance", "format": "in vivo", "protocol": "The diagnostic tests to which these patients were subjected were: • Intestinal biopsy: determining intestinal lactase activity therein. • Hydrogen breath test after the oral administration to patients of 50 g of lactose. While this test was being carried out, several capillary-blood glucose test (Glycemia tests) were carried out, calculating the highest increase observed in the blood glucose concentration compared to basal glucose level before starting the test. • 4-GX test in total urine at 0-4 and 0-5 hours, which was orally administered to patients 0.5 g of this product (or 0.45 g in a 4-GX sample including 10 wt % water), collecting the total urine accumulated over 0-4 h and 0-5 h following the administration of 4-GX and determining the amount of excreted xylose in both volumes of urine. • 4-GX test in blood which was orally administered to patients 3 g of this product (or 2.7 g in a 4-GX sample including 10 wt % water) to determine the concentration of plasma xylose in a blood sample 90 minutes after ingestion of the product. The concentration obtained was compared to a basal blood sample extracted before ingestion of 4-GX.\nThe 4-GX was orally administered in a single dose dissolved in 100 ml of water.\nThe blood samples were centrifuged to obtain plasma in which the analysis of the amount of xylose present was performed.\nFrom the data obtained from the various urine tests for intestinal lactase deficiency following oral ingestion of 4-GX described in the present invention, a descriptive statistical analysis was performed of the amount of xylose excreted in the urine up to 4 hours and up to 5 hours following said administration. The same was done with the blodd test for intestinal lactase activity following oral ingestion of 4-GX, where descriptive statistical analysis was performed on the amount of xylose present in the plasma of subjects at 90 minutes following administration of 4-GX. The net increase in the plasma xylose concentration compared to basal values was also calculated.\nTo obtain the statistical parameters of lactase determination using the various 4-GX tests described in the present invention and later to compare them with the results obtained from the intestinal biopsy test, hydrogen in exhaled air test and capillary-blood glucose test, the normal limits of the measurement of the total amount of xylose excreted in 4-hour and 5-hour urine and the concentration of blood xylose after 90 minutes following ingestion of 4-GX described in Table 5 were used. The normal limits for the other tests were those used in common clinical practice for the diagnosis of lactose intolerance (Arola, H. (1994) Diagnosis of hypolactasia and lactose malabsorption. Scand. J. Gastroenterol. […] (Suppl), 26-35), which are:\nFor the measurement of lactase by intestinal biopsy, the lower normal limit is established at 10 units/g protein, with values less than this being considered positive."}, "[3]": {"details": "3 g 4-GX, 90-min blood, lactase in intestinal biopsy as gold standard"}, "[4]": {"details": "3 g 4-GX, plasma at 90 min, cut-off 0.97 mg/dL, 205 patients"}, "[5]": {"details": "blood, after correcting biopsy diagnosis"}, "[6]": {"details": "blood, after correction of the biopsy diagnostic result (five discrepancies)"}, "[7]": {"details": "blood, after correction of the biopsy diagnostic result (four discrepancies)"}, "[8]": {"details": "blood, final criteria of Table 9"}}, "note": "“And” between values parts separate entries of the source, which are not always exact repeats. Equal values may be shown once."}
{"smiles": "O=C[C@H](O)[C@@H](O)[C@@H](CO)O[C@@H]1O[C@H](CO)[C@H](O)[C@H](O)[C@H]1O", "note": "[4-GX, 4-O-β-galactopyranosyl-D-xylose]", "values": [{"measurement": "AUC 0-t: area under the curve of plasma xylose concentration against time", "setting": "intestinal lactase [1]; 4-GX 0.125 g oral", "value": 32.49, "unit": "mg/dL/h"}, {"measurement": "AUC 0-t: area under the curve of plasma xylose concentration against time", "setting": "intestinal lactase [1]; 4-GX 0.250 g oral", "value": 34.25, "unit": "mg/dL/h"}, {"measurement": "AUC 0-t: area under the curve of plasma xylose concentration against time", "setting": "intestinal lactase [1]; 4-GX 0.5 g oral", "value": 35.53, "unit": "mg/dL/h"}, {"measurement": "AUC 0-t: area under the curve of plasma xylose concentration against time", "setting": "intestinal lactase [1]; 4-GX 1 g oral", "value": 36.60, "unit": "mg/dL/h"}, {"measurement": "AUC 0-t: area under the curve of plasma xylose concentration against time", "setting": "intestinal lactase [1]; 4-GX 3 g oral", "value": 39.24, "unit": "mg/dL/h"}, {"measurement": "AUC 0-t: area under the curve of plasma xylose concentration against time", "setting": "intestinal lactase [1]; 4-GX 6 g oral", "value": 41.39, "unit": "mg/dL/h"}, {"measurement": "lowest dose of 4-GX for which plasma xylose differs significantly from placebo", "setting": "intestinal lactase [1]; healthy volunteers", "value": 3, "unit": "g"}, {"measurement": "Negative predictive value", "setting": "intestinal lactase [2]; [3]", "value": "91.8% and 91.75%"}, {"measurement": "Positive predictive value", "setting": "intestinal lactase [2]; [3]", "value": 93.4, "unit": "%"}, {"measurement": "Sensitivity", "setting": "intestinal lactase [2]; [3]", "value": "92.5% and 92.52%"}, {"measurement": "Specificity", "setting": "intestinal lactase [2]; [3]", "value": "92.7% and 92.71%"}, {"measurement": "No. Negative", "setting": "intestinal lactase [2]; [4]", "value": 97}, {"measurement": "No. Positive (patients presenting intestinal lactase deficiency)", "setting": "intestinal lactase [2]; [4]", "value": 106}, {"measurement": "Percentage of patients negative", "setting": "intestinal lactase [2]; [4]", "value": 48, "unit": "%"}, {"measurement": "Percentage of patients positive", "setting": "intestinal lactase [2]; [4]", "value": "51.7% and 52%"}, {"measurement": "sensitivity calculated using the ROC curves", "setting": "intestinal lactase [2]; blood samples", "value": 92.5, "unit": "%"}, {"measurement": "specificity calculated using the ROC curves", "setting": "intestinal lactase [2]; blood samples", "value": 92.7, "unit": "%"}, {"measurement": "range of recalculated sensitivity, specificity, positive and negative predictive values", "setting": "intestinal lactase [2]; blood test, after correcting biopsy diagnosis", "value": "97.94-98.11"}, {"measurement": "false negatives", "setting": "intestinal lactase [2]; [5]", "value": 1.89, "unit": "%"}, {"measurement": "negative likelihood ratio", "setting": "intestinal lactase [2]; [5]", "value": 0.019}, {"measurement": "positive likelihood ratio", "setting": "intestinal lactase [2]; [5]", "value": 47.585}, {"measurement": "Negative predictive value", "setting": "intestinal lactase [2]; [6]", "value": 97.94, "unit": "%"}, {"measurement": "Positive predictive value", "setting": "intestinal lactase [2]; [6]", "value": 98.11, "unit": "%"}, {"measurement": "Sensitivity", "setting": "intestinal lactase [2]; [6]", "value": 98.11, "unit": "%"}, {"measurement": "Specificity", "setting": "intestinal lactase [2]; [6]", "value": 97.94, "unit": "%"}, {"measurement": "Negative predictive value", "setting": "intestinal lactase [2]; [7]", "value": 98.97, "unit": "%"}, {"measurement": "Positive predictive value", "setting": "intestinal lactase [2]; [7]", "value": 99.06, "unit": "%"}, {"measurement": "Sensitivity", "setting": "intestinal lactase [2]; [7]", "value": 99.06, "unit": "%"}, {"measurement": "Specificity", "setting": "intestinal lactase [2]; [7]", "value": 98.97, "unit": "%"}, {"measurement": "area under the ROC curve", "setting": "intestinal lactase [2]; blood, biopsy as gold standard", "value": 0.9268}, {"measurement": "false negatives", "setting": "intestinal lactase [2]; blood, biopsy as gold standard", "value": 7.5, "unit": "%"}, {"measurement": "false positives", "setting": "intestinal lactase [2]; blood, biopsy as gold standard", "value": 7.3, "unit": "%"}, {"measurement": "concordant positive results, percentage", "setting": "intestinal lactase [2]; [8]", "value": 97.2, "unit": "%"}, {"measurement": "final number of concordant positive results", "setting": "intestinal lactase [2]; [8]", "value": 104}, {"measurement": "negative results (concordant), percentage", "setting": "intestinal lactase [2]; [8]", "value": 96.9, "unit": "%"}, {"measurement": "number of negative results (concordant)", "setting": "intestinal lactase [2]; [8]", "value": 95}]}
